Starred links: 1 amine or outer side, 2 acyl side, 3 side chain; linkers in the order of their positions; H or OH if unused. Positions of bridges follow the written chain, without caps; N, C: chain ends. Non-standard residues stand in square brackets, D forms with d. Residues, ends and D or L forms follow the SMILES beside them. dPen = CC(C)(S)[C@@H](N)C(=O)O; Pen = CC(C)(S)[C@H](N)C(=O)O; CH2CH2 = C(C[*:2])[*:1]
Legend:
Mu-type opioid receptor = Mu-type opioid receptor (Cavia porcellus, UniProt P97266); assay: Binding affinity against mu opioid receptor
[1] = target: Opioid receptors; mu/kappa/delta (Homo sapiens, UniProt P41145+P41143+P35372); assay: Agonistic activity tested in vitro in guinea pig ileum opioid; assay type: functional, tissue-based, Cavia porcellus; settings: target entry is the homologue from another species
[2] = Binding affinity against Opioid receptor delta 1

Chain of Mu-type opioid receptor (P97266 whole entry): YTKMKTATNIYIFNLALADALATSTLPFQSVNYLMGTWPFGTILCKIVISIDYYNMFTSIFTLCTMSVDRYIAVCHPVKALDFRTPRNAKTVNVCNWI

Compound | Ki (Mu-type opioid receptor) [nM] | IC50 [1] [nM] | Ki [2] [nM]
CC1(C)SCCSC[C@@H](NC(=O)[C@@H](N)Cc2ccccc2)C(=O)N[C@@H](Cc2ccccc2)C(=O)N[C@H]1C(N)=O | 1.36 | 9.1 | –
CC1(C)SSC[C@@H](NC(=O)[C@@H](N)Cc2ccccc2)C(=O)N[C@@H](Cc2ccccc2)C(=O)N[C@H]1C(=O)O | 610 | – | –
CC1(C)SSC[C@H](NC(=O)[C@@H](N)Cc2ccc(O)cc2)C(=O)N[C@@H](Cc2ccccc2)C(=O)N[C@@H]1C(=O)O (H-YCF[Pen]-OH; disulfide 2-4) | – | – | 0.74
CC1(C)SCCSC[C@@H](NC(=O)[C@@H](N)Cc2ccc(O)cc2)C(=O)N[C@@H](Cc2ccccc2)C(=O)N[C@H]1C(N)=O (H-Y[dC]F[dPen]-NH2; linker 2-4 via CH2CH2) | 0.29 | – | –
C[C@@H](NC(=O)[C@@H](N)Cc1ccc(O)cc1)C(=O)NCC(=O)N(C)[C@@H](Cc1ccccc1)C(=O)NCCO [DAMGO] | 0.99 | – | –

Source: ChEMBL document CHEMBL1130596, “A high affinity, mu-opioid receptor-selective enkephalin analogue lacking an N-terminal tyrosine” (Bioorg Med Chem Lett, 1998)
